Laboratory results as given in ChEMBL document CHEMBL1155915, “Anticonvulsant activity of some xanthone derivatives” (Bioorg Med Chem, 2008).
The source made the active and inactive calls. The rule behind the calls is not given here.

How the values were obtained:
Mus musculus [1] = assay: Neurotoxicity in mouse at 10 mg/kg, ip after 0.5 hrs by rotarod test; assay type: toxicity, organism-based; set-up: dose 10 mg/kg, route intraperitoneal; conditions: in vivo
Mus musculus [2] = assay: Neurotoxicity in mouse at 10 mg/kg, ip after 4 hrs by rotarod test; assay type: toxicity, organism-based; set-up: dose 10 mg/kg, route intraperitoneal; conditions: in vivo
Mus musculus [3] = assay: Neurotoxicity in mouse at 30 mg/kg, ip after 0.5 hrs by rotarod test; assay type: toxicity, organism-based; set-up: dose 30 mg/kg, route intraperitoneal; conditions: in vivo
Mus musculus [4] = assay: Neurotoxicity in mouse at 30 mg/kg, ip after 4 hrs by rotarod test; assay type: toxicity, organism-based; set-up: dose 30 mg/kg, route intraperitoneal; conditions: in vivo
Mus musculus [5] = assay: Neurotoxicity in mouse at 100 mg/kg, ip after 4 hrs by rotarod test; assay type: toxicity, organism-based; set-up: dose 100 mg/kg, route intraperitoneal; conditions: in vivo
Mus musculus [6] = assay: Neurotoxicity in mouse at 300 mg/kg, ip after 0.5 hrs by rotarod test; assay type: toxicity, organism-based; set-up: dose 300 mg/kg, route intraperitoneal; conditions: in vivo
Rattus norvegicus [7] = assay: Anticonvulsant activity against maximal electroshock-induced seizures in rat at 30 mg/kg, po after 0.5 hrs; assay type: functional, organism-based; set-up: dose 30 mg/kg
Rattus norvegicus [8] = assay: Anticonvulsant activity against maximal electroshock-induced seizures in rat at 30 mg/kg, po after 1 hr; assay type: functional, organism-based; set-up: dose 30 mg/kg
Rattus norvegicus [9] = assay: Anticonvulsant activity against maximal electroshock-induced seizures in rat at 30 mg/kg, po after 2 hrs; assay type: functional, organism-based; set-up: dose 30 mg/kg
Rattus norvegicus [10] = assay: Anticonvulsant activity against maximal electroshock-induced seizures in rat at 30 mg/kg, po after 4 hrs; assay type: functional, organism-based; set-up: dose 30 mg/kg
Rattus norvegicus [11] = assay: Neurotoxicity in rat at 30 mg/kg, po after 0.25 hrs by rotarod test; assay type: toxicity, organism-based; set-up: dose 30 mg/kg, route oral; conditions: in vivo
Rattus norvegicus [12] = assay: Neurotoxicity in rat at 30 mg/kg, po after 0.5 hrs by rotarod test; assay type: toxicity, organism-based; set-up: dose 30 mg/kg, route oral; conditions: in vivo
Rattus norvegicus [13] = assay: Neurotoxicity in rat at 30 mg/kg, po after 1 hr by rotarod test; assay type: toxicity, organism-based; set-up: dose 30 mg/kg, route oral; conditions: in vivo
Rattus norvegicus [14] = assay: Neurotoxicity in rat at 30 mg/kg, po after 2 hrs by rotarod test; assay type: toxicity, organism-based; set-up: dose 30 mg/kg, route oral; conditions: in vivo
Rattus norvegicus [15] = assay: Neurotoxicity in rat at 30 mg/kg, po after 4 hrs by rotarod test; assay type: toxicity, organism-based; set-up: dose 30 mg/kg, route oral; conditions: in vivo
Mus musculus [16] = assay: Neurotoxicity in mouse at 3 mg/kg, ip after 0.5 hrs by rotarod test; assay type: toxicity, organism-based; set-up: dose 3 mg/kg, route intraperitoneal; conditions: in vivo
Mus musculus [17] = assay: Anticonvulsant activity against maximal electroshock-induced seizures in mouse at 3 mg/kg, ip after 0.5 hrs; assay type: functional, organism-based; set-up: dose 3 mg/kg
Mus musculus [18] = assay: Anticonvulsant activity against maximal electroshock-induced seizures in mouse at 10 mg/kg, ip after 0.5 hrs; assay type: functional, organism-based; set-up: dose 10 mg/kg
Mus musculus [19] = assay: Anticonvulsant activity against maximal electroshock-induced seizures in mouse at 10 mg/kg, ip after 4 hrs; assay type: functional, organism-based; set-up: dose 10 mg/kg
Mus musculus [20] = assay: Anticonvulsant activity against maximal electroshock-induced seizures in mouse at 30 mg/kg, ip after 0.5 hrs; assay type: functional, organism-based; set-up: dose 30 mg/kg
Mus musculus [21] = assay: Anticonvulsant activity against maximal electroshock-induced seizures in mouse at 30 mg/kg, ip after 4 hrs; assay type: functional, organism-based; set-up: dose 30 mg/kg
Mus musculus [22] = assay: Anticonvulsant activity against maximal electroshock-induced seizures in mouse at 100 mg/kg, ip after 0.5 hrs; assay type: functional, organism-based; set-up: dose 100 mg/kg
Mus musculus [23] = assay: Anticonvulsant activity against scMet-induced seizures in mouse at 10 mg/kg, ip after 0.5 hrs; assay type: functional, organism-based; set-up: dose 10 mg/kg
Mus musculus [24] = assay: Anticonvulsant activity against scMet-induced seizures in mouse at 100 mg/kg, ip after 4 hrs; assay type: functional, organism-based; set-up: dose 100 mg/kg
Mus musculus [25] = assay: Anticonvulsant activity against scMet-induced seizures in mouse at 10 mg/kg, ip after 4 hrs; assay type: functional, organism-based; set-up: dose 10 mg/kg
Mus musculus [26] = assay: Anticonvulsant activity against scMet-induced seizures in mouse at 30 mg/kg, ip after 0.5 hrs; assay type: functional, organism-based; set-up: dose 30 mg/kg
Mus musculus [27] = assay: Anticonvulsant activity against scMet-induced seizures in mouse at 30 mg/kg, ip after 4 hrs; assay type: functional, organism-based; set-up: dose 30 mg/kg
Mus musculus [28] = assay: Anticonvulsant activity against scMet-induced seizures in mouse at 100 mg/kg, ip after 0.5 hrs; assay type: functional, organism-based; set-up: dose 100 mg/kg
Mus musculus [29] = assay: Neurotoxicity in mouse at 100 mg/kg, ip after 0.25 hrs by rotarod test; assay type: toxicity, organism-based; set-up: dose 100 mg/kg, route intraperitoneal; conditions: in vivo
Mus musculus [30] = assay: Neurotoxicity in mouse at 300 mg/kg, ip after 4 hrs by rotarod test; assay type: toxicity, organism-based; set-up: dose 300 mg/kg, route intraperitoneal; conditions: in vivo
Mus musculus [31] = assay: Anticonvulsant activity against maximal electroshock-induced seizures in mouse at 100 mg/kg, ip after 1 hr; assay type: functional, organism-based; set-up: dose 100 mg/kg
Mus musculus [32] = assay: Anticonvulsant activity against maximal electroshock-induced seizures in mouse at 300 mg/kg, ip after 0.5 hrs; assay type: functional, organism-based; set-up: dose 300 mg/kg
Mus musculus [33] = assay: Anticonvulsant activity against maximal electroshock-induced seizures in mouse at 300 mg/kg, ip after 4 hrs; assay type: functional, organism-based; set-up: dose 300 mg/kg
Mus musculus [34] = assay: Anticonvulsant activity against scMet-induced seizures in mouse at 300 mg/kg, ip after 0.5 hrs; assay type: functional, organism-based; set-up: dose 300 mg/kg
Mus musculus [35] = assay: Anticonvulsant activity against scMet-induced seizures in mouse at 300 mg/kg, ip after 4 hrs; assay type: functional, organism-based; set-up: dose 300 mg/kg
Mus musculus [36] = assay: Neurotoxicity in mouse at 30 mg/kg, ip after 1 hr by rotarod test; assay type: toxicity, organism-based; set-up: dose 30 mg/kg, route intraperitoneal; conditions: in vivo
Mus musculus [37] = assay: Neurotoxicity in mouse at 100 mg/kg, ip after 1 hr by rotarod test; assay type: toxicity, organism-based; set-up: dose 100 mg/kg, route intraperitoneal; conditions: in vivo
Rattus norvegicus [38] = assay: Anticonvulsant activity against maximal electroshock-induced seizures in rat at 30 mg/kg, po after 0.25 hrs; assay type: functional, organism-based; set-up: dose 30 mg/kg
Mus musculus [39] = assay: Anticonvulsant activity against maximal electroshock-induced seizures in mouse at 100 mg/kg, ip after 4 hrs; assay type: functional, organism-based; set-up: dose 100 mg/kg

SMILES | Neurotoxicity (Mus musculus [3]) | Neurotoxicity (Mus musculus [4]) | Neurotoxicity (Mus musculus [5]) | Neurotoxicity (Mus musculus [6]) | Activity (Rattus norvegicus [7]) | Activity (Rattus norvegicus [8]) | Activity (Rattus norvegicus [9]) | Activity (Rattus norvegicus [10]) | Neurotoxicity (Rattus norvegicus [11]) | Neurotoxicity (Rattus norvegicus [12]) | Neurotoxicity (Rattus norvegicus [13]) | Neurotoxicity (Rattus norvegicus [14]) | Neurotoxicity (Rattus norvegicus [15]) | Activity (Mus musculus [20]) | Activity (Mus musculus [21]) | Activity (Mus musculus [22]) | Activity (Mus musculus [24]) | Activity (Mus musculus [26]) | Activity (Mus musculus [27]) | Activity (Mus musculus [28]) | also measured
CCN(CCO)Cc1ccc2oc3cc(Cl)ccc3c(=O)c2c1 | Not Active | Not Active | Neurotoxic | Neurotoxic | inactive | inactive | inactive | inactive | Not Active | Not Active | Not Active | Not Active | Not Active | inactive | inactive | Active | inactive | inactive | inactive | inactive | Neurotoxicity (Mus musculus [1]): Not Active; Neurotoxicity (Mus musculus [2]): Not Active; Neurotoxicity (Mus musculus [16]): Not Active; Activity (Mus musculus [17]): inactive; Activity (Mus musculus [18]): Active; Activity (Mus musculus [19]): inactive; Activity (Mus musculus [23]): inactive; Activity (Mus musculus [25]): inactive
C[C@@H](CCl)NCc1ccc2oc3cc(Cl)ccc3c(=O)c2c1.Cl | – | Not Active | Not Active | – | – | – | – | – | – | – | – | – | – | inactive | inactive | inactive | inactive | inactive | inactive | inactive | Neurotoxicity (Mus musculus [29]): Not Active; Neurotoxicity (Mus musculus [30]): Not Active; Activity (Mus musculus [31]): inactive; Activity (Mus musculus [32]): Active; Activity (Mus musculus [33]): Active; Activity (Mus musculus [34]): inactive; Activity (Mus musculus [35]): inactive
Cl.O=c1c2ccc(Cl)cc2oc2ccc(CNCCCO)cc12 | Not Active | Not Active | Not Active | Neurotoxic | inactive | inactive | inactive | inactive | Not Active | Not Active | Not Active | Not Active | Not Active | inactive | inactive | inactive | inactive | inactive | inactive | inactive | Neurotoxicity (Mus musculus [36]): Not Active; Neurotoxicity (Mus musculus [37]): Not Active; Neurotoxicity (Mus musculus [30]): Neurotoxic; Activity (Rattus norvegicus [38]): inactive; Activity (Mus musculus [39]): inactive; Activity (Mus musculus [32]): Active; Activity (Mus musculus [33]): inactive; Activity (Mus musculus [34]): inactive; Activity (Mus musculus [35]): inactive
